Data from patent US4026857A, “Epoxy emulsion water-based coating” (priority 1975, dated 1977).

Legend:
[1] = Solubility of solvents in water and of water in solvents; format: physicochemical; conditions: for Solubility, Solvent in H2 O: solvent in water; for Solubility, H2 O in Solvent: water in solvent
[2] = Emulsion formation with different organic solvents; format: physicochemical; conditions: 50 parts solvent, 100 parts epoxy resin, 14 parts surfactant, 150 parts deionized water
Procedure: A series of emulsions were prepared using 100 parts of an epoxy resin (diglycidylether of bisphenol A) having an epoxy equivalent weight of 2,000-2,500, 50 parts of a solvent, 14 parts of surfactant having the formula [drawing 1] wherein a+ c is about 190-200, b is about 60-70, and average molecular weight is about 12,500, and 150 parts of deionized water. In each emulsion a different solvent was used. Each emulsion, as well as other emulsions whose formulations are described in this specification, was prepared using the following general procedure:
The epoxy resin was dissolved in the solvent by heating at 130° C. with agitation. The resin solution was then cooled to about 65° C. and placed in high speed dispersing equipment. The surfactant was added. (In formulations wherein the emulsion coating was to be baked, cross-linking catalyst and curing agent, as defined hereinafter, were also added at this point.) Part of the water (about 100 parts) was then slowly added under high speed agitation (approximately 2,000 ft./min. peripheral speed) to pass the inversion point. Thereupon the agitation speed was slowed down to about 1,000 ft./min. and the balance of the water was added.
In each emulsion, a different organic solvent was used. […] Each emulsion formed was applied, by wire wound bar application, to a test panel of lubricated electrolytic tinplated steel. […]

Row | Structure (SMILES) | Solubility, Solvent in H2 O [1] | Solubility, H2 O in Solvent [1] | emulsion formation [2]
1 | CCOCCO [Ethyl Cellosolve] | .infin. | .infin. | 
2 | CCCCCCOCCO [Hexyl Cellosolve, 2-Hexoxyethanol] | 0.99 wt. % | 18.8 wt. % | 
3 | COCCO [Methyl Cellosolve] | .infin. | .infin. | 
4 | OCCOCCOc1ccccc1 [diethylene glycol monophenyl ether] |  |  | an emulsion could not be formed
5 | CC(C)CC(=O)CC(C)C [diisobutyl ketone] |  |  | an emulsion could not be formed
